The text below walks through data of patent US8273774B2, “Phenoxypyridinylamide compounds” (AstraZeneca AB, priority 2008, dated 2012).

In this assay the target is recombinant Human Phosphodiesterase B2 (PDE4B2) (Homo sapiens, UniProt Q07343). The experiment in a line: Human Phosphodiesterase B2 Radiometric Assay. The format is biochemical. Particulars: 0.1 μg/mL recombinant PDE4B2; preincubated at 30 C for 30 min; [3H]cyclic AMP 8 nM, stopped after 20 min; yttrium silicate SPA beads; read-out: PDE4B2 pIC50 (converted). The gist of the method:
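SPA read-out: product 5′AMP binds yttrium silicate beads (added with 18 mM ZnSO4 after 20 min) in preference to [3H]cAMP substrate, given at 8 nM final.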

Structures are written as SMILES.

Chain of recombinant Human Phosphodiesterase B2 (PDE4B2) (Q07343 1-564 isoform Q07343-2): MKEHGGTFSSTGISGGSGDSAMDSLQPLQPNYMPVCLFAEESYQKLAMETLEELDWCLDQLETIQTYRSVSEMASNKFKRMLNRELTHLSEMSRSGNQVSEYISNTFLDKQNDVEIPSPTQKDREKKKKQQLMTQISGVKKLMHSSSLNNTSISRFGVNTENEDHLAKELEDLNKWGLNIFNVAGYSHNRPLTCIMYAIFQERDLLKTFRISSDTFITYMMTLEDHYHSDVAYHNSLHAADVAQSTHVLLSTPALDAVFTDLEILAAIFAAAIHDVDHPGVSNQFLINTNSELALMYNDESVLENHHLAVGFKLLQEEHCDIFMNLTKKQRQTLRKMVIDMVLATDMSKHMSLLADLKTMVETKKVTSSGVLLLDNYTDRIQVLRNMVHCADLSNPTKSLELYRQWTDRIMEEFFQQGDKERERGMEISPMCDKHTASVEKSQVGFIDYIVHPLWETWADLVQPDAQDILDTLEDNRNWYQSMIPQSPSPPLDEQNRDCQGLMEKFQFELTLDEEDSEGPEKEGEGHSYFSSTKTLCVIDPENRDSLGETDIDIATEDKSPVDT

`C[C@@H]1CN(CCCc2ccc(-c3cccc(Oc4ncc(F)cc4C(=O)N[C@H]4CC[C@@H](NC(=O)c5cscn5)CC4)c3)cc2)C[C@H](C)N1` [Example 155, N-((1s,4s)-4-(2-(4′-(3-((3S,5R)-3,5-dimethylpiperazin-1-yl)propyl)biphenyl-3-yloxy)-5-fluoronicotinamido)cyclohexyl)thiazole-4-carboxamide]: the IC50 was 39.8 pM. To `Cc1cc(C(=O)N[C@H]2CC[C@@H](NC(=O)c3cc(F)cnc3Oc3cccc(-c4ccc(O)cc4CN4CCCOCC4)c3)CC2)nn1C` [Example 19, 2-(2′-((1,4-oxazepan-4-yl)methyl)-4′-hydroxybiphenyl-3-yloxy)-N-((1s,4s)-4-(1,5-dimethyl-1H-pyrazole-3-carboxamido)cyclohexyl)-5-fluoronicotinamide] belongs 10 pM; to `CN(C)C1(C(=O)NC2CCC(NC(=O)c3cc(F)cnc3Oc3cccc(-c4ccc(O)cc4CN4CCOCC4)c3)CC2)CC1` (stereo not drawn) [Example 17, N-((1s,4s)-4-(1-(dimethylamino)cyclopropanecarboxamido)cyclohexyl)-5-fluoro-2-(4′-hydroxy-2′-(morpholinomethyl)biphenyl-3-yloxy)nicotinamide], 1580 pM.

For `CC(=O)N1CCN(Cc2cc(O)ccc2-c2cccc(Oc3ncc(F)cc3C(=O)N[C@H]3CC[C@@H](NC(=O)c4csc(C)n4)CC3)c2)CC1` [Example 29, N-((1s,4s)-4-(2-(2′-((4-acetylpiperazin-1-yl)methyl)-4′-hydroxybiphenyl-3-yloxy)-5-fluoronicotinamido)cyclohexyl)-2-methylthiazole-4-carboxamide], the IC50 is 39.8 pM. In the case of `Cc1csc(C(=O)N[C@H]2CC[C@@H](NC(=O)c3cc(F)cnc3Oc3cccc(-c4ccc(O)c(CN5C[C@@H](C)N[C@@H](C)C5)c4)c3)CC2)n1` [Example 88, N-((1s,4s)-4-(2-(3′-(((3S,5R)-3,5-dimethylpiperazin-1-yl)methyl)-4′-hydroxybiphenyl-3-yloxy)-5-fluoronicotinamido)cyclohexyl)-4-methylthiazole-2-carboxamide] it was 31.6 pM; in that of `C[C@@H]1CN(Cc2ccc(-c3cccc(Oc4ncc(F)cc4C(=O)N[C@H]4CC[C@@H](NC(=O)c5cc6ccccn6n5)CC4)c3)cc2)C[C@H](C)N1` [Example 71, N-((1s,4s)-4-(2-(4′-(((3S,5R)-3,5-dimethylpiperazin-1-yl)methyl)biphenyl-3-yloxy)-5-fluoronicotinamido)cyclohexyl)pyrazolo[1,5-a]pyridine-2-carboxamide], 25.1 pM. In the case of `O=C(N[C@H]1CC[C@@H](NC(=O)c2cc(F)cnc2Oc2cccc(-c3ccc(CCN4CCNCC4)cc3)c2)CC1)c1cnc2ccccc2n1` [Example 186, N-((1s,4s)-4-(5-Fluoro-2-(4′-(2-(piperazin-1-yl)ethyl)biphenyl-3-yloxy)nicotinamido)cyclohexyl)quinoxaline-2-carboxamide] it was 39.8 pM. To `Cc1cc(C)n2ncc(C(=O)N[C@H]3CC[C@@H](NC(=O)c4cc(F)cnc4Oc4cccc(-c5ccc(CN6CCCN(CCO)CC6)cc5CN5CCSCC5)c4)CC3)c2n1` [Example 182, N-((1s,4s)-4-(5-Fluoro-2-(4′-((4(2-hydroxyethyl)-1,4-diazepan-1-yl)methyl)-2′-(thiomorpholinomethyl)biphenyl-3-yloxy)nicotinamido)cyclohexyl)-5,7-dimethylpyrazolo[1,5-a]pyrimidine-3-carboxamide] belongs 39.8 pM; to `C[C@@H]1CN(Cc2cc(-c3cccc(Oc4ncc(F)cc4C(=O)N[C@H]4CC[C@@H](NC(=O)c5cccc6[nH]cnc56)CC4)c3)ccc2O)C[C@H](C)N1` [Example 94, N-((1s,4s)-4-(2-(3′-(((3S,5R)-3,5-dimethylpiperazin-1-yl)methyl)-4′-hydroxybiphenyl-3-yloxy)-5-fluoronicotinamido)cyclohexyl)-1H-benzo[d]imidazole-4-carboxamide], 63.1 pM. `Cc1cc(C(=O)N[C@H]2CC[C@@H](NC(=O)c3cc(F)cnc3Oc3cccc(-c4cccc(CCCN5CCNCC5)c4)c3)CC2)nn1C` [Example 108, N-((1s,4s)-4-(1,5-dimethyl-1H-pyrazole-3-carboxamido)cyclohexyl)-5-fluoro-2-(3′-(3-(piperazin-1-yl)propyl)biphenyl-3-yloxy)nicotinamide]: the IC50 was 20 pM. As to `C[C@@H]1CN(Cc2ccc(-c3cccc(Oc4ncc(F)cc4C(=O)N[C@H]4CC[C@@H](NC(=O)c5csc(CO)n5)CC4)c3)cc2)C[C@H](C)N1` [Example 70, N-((1s,4s)-4-(2-(4′-(((3S,5R)-3,5-dimethylpiperazin-1-yl)methyl)biphenyl-3-yloxy)-5-fluoronicotinamido)cyclohexyl)-2-(hydroxymethyl)thiazole-4-carboxamide], the IC50 is 79.4 pM. To `C[C@@H]1CN(Cc2ccc(-c3cccc(Oc4ncc(F)cc4C(=O)N[C@H]4CC[C@@H](NC(=O)c5cc6n(n5)CCCC6)CC4)c3)c(CN3CCOCC3)c2)C[C@H](C)N1` [Example 124, N-((1s,4s)-4-(2-(4′-(((3S,5R)-3,5-dimethylpiperazin-1-yl)methyl)-2′-(morpholinomethyl)biphenyl-3-yloxy)-5-fluoronicotinamido)cyclohexyl)-4,5,6,7-tetrahydropyrazolo[1,5-a]pyridine-2-carboxamide] belongs 50.1 pM. In the case of `O=C(N[C@H]1CC[C@@H](NC(=O)c2cc(F)cnc2Oc2cccc(-c3ccc(CCCN4CCNCC4)cc3)c2)CC1)c1cc2n(n1)CCC2` [Example 133, N-((1s,4s)-4-(5-fluoro-2-(4′-(3-(piperazin-1-yl)propyl)biphenyl-3-yloxy)nicotinamido)cyclohexyl)-5,6-dihydro-4H-pyrrolo[1,2-b]pyrazole-2-carboxamide] it was 50.1 pM. `Cc1cc(C(=O)N[C@H]2CC[C@@H](NC(=O)c3cc(F)cnc3Oc3cccc(-c4cccc(CN5C[C@@H](C)N[C@@H](C)C5)c4Cl)c3)CC2)nn1C` [Example 107, 2-(2′-chloro-3′-(((3S,5R)-3,5-dimethylpiperazin-1-yl)methyl)biphenyl-3-yloxy)-N-((1s,4s)-4-(1,5-dimethyl-1H-pyrazole-3-carboxamido)cyclohexyl)-5-fluoronicotinamide]: the IC50 is 158 pM. In the case of `Cc1nc(C(=O)N[C@H]2CC[C@@H](NC(=O)c3cc(F)cnc3Oc3cccc(-c4ccc(CCCNCCCO)cc4)c3)CC2)cs1` [Example 136, N-((1s,4s)-4-(5-fluoro-2-(4′-(3-(3-hydroxypropylamino)propyl)biphenyl-3-yloxy)nicotinamido)cyclohexyl)-2-methylthiazole-4-carboxamide], the IC50 was 100 pM. To `O=C(N[C@H]1CC[C@@H](NC(=O)c2cc(F)cnc2Oc2cccc(-c3ccc(CCN4CCNCC4)cc3)c2)CC1)c1cn2cc(F)ccc2n1` [Example 117, 6-fluoro-N-((1s,4s)-4-(5-fluoro-2-(4′-(2-(piperazin-1-yl)ethyl)biphenyl-3-yloxy)nicotinamido)cyclohexyl)imidazo[1,2-a]pyridine-2-carboxamide] belongs 100 pM; to `O=C(N[C@H]1CC[C@@H](NC(=O)c2cc(F)cnc2Oc2cccc(-c3ccc(O)cc3CN3CCOCC3)c2)CC1)c1cc2ccccc2nc1O` [Example 42, N-((1s,4s)-4-(5-fluoro-2-(4′-hydroxy-2′-(morpholinomethyl)biphenyl-3-yloxy)nicotinamido)cyclohexyl)-2-hydroxyquinoline-3-carboxamide], 50.1 pM; to `O=C(N[C@H]1CC[C@@H](NC(=O)c2cc(F)cnc2Oc2cccc(-c3ccc(O)cc3CN3CCOCC3)c2)CC1)c1cc(O)c2ccccc2n1` [Example 41, N-((1s,4s)-4-(5-fluoro-2-(4′-hydroxy-2′-(morpholinomethyl)biphenyl-3-yloxy)nicotinamido)cyclohexyl)-4-hydroxyquinoline-2-carboxamide], 100 pM. In the case of `Cc1cccc2nc(C(=O)N[C@H]3CC[C@@H](NC(=O)c4cc(F)cnc4Oc4cccc(-c5ccc(O)cc5CN5CCCOCC5)c4)CC3)cn12` [Example 20, N-((1s,4s)-4-(2-(2′-((1,4-oxazepan-4-yl)methyl)-4′-hydroxybiphenyl-3-yloxy)-5-fluoronicotinamido)cyclohexyl)-5-methylimidazo[1,2-a]pyridine-2-carboxamide] it was 31.6 pM. In the case of `Cc1csc(C(=O)N[C@H]2CC[C@@H](NC(=O)c3cc(F)cnc3Oc3cccc(-c4ccc(CN5C[C@@H](C)N[C@@H](C)C5)cc4CN4CCOCC4)c3)CC2)n1` [Example 144, N-((1s,4s)-4-(2-(4′-(((3S,5R)-3,5-dimethylpiperazin-1-yl)methyl)-2′-(morpholinomethyl)biphenyl-3-yloxy)-5-fluoronicotinamido)cyclohexyl)-4-methylthiazole-2-carboxamide] it was 31.6 pM; in that of `C[C@@H]1CN(Cc2cc(-c3cccc(Oc4ncc(F)cc4C(=O)N[C@H]4CC[C@@H](NC(=O)c5cn6c(n5)CCCC6)CC4)c3)ccc2O)C[C@H](C)N1` [Example 91, N-((1s,4s)-4-(2-(3′-(((3S,5R)-3,5-dimethylpiperazin-1-yl)methyl)-4′-hydroxybiphenyl-3-yloxy)-5-fluoronicotinamido)cyclohexyl)-5,6,7,8-tetrahydroimidazo[1,2-a]pyridine-2-carboxamide], 251 pM.
